Where “and” joins values, the source holds several entries; their conditions need not be identical. Equal entries are not always repeated. Where two headings read alike, the source gives them in different places.
What was measured:
[1] = test system: SFTSV; assay: microbe, parasite or virus in culture; type: cell-based; conditions: for EC50: Severe fever with thrombocytopenia syndrome virus
[2] = in vivo; conditions: cynomolgus monkey, po, 5 mg/kg
[3] = in vivo; conditions: Sprague-Dawley, rat, po, 10 mg/kg
[4] = in vitro
[5] = test system: LCMV; assay: microbe, parasite or virus in culture; type: cell-based, lymphocytic choriomeningitis virus (strain Armstrong); conditions: for EC50: Mammarenavirus choriomeningitidis
[6] = test system: SFTSV; design: species or system A129 mice; conditions: mouse, in vivo
[7] = test system: LCMV; design: species or system C57BL/6-Prf1^tm1Sdz/J mice; conditions: mouse, in vivo
[8] = cynomolgus monkey, in vivo, po, 10.7 mg/kg
[9] = test system: LCMV; type: cell-based, lymphocytic choriomeningitis virus
[10] = Sprague-Dawley, rat, in vivo, po, 21 mg/kg
[11] = test system: SFTSV; type: cell-based, severe fever with thrombocytopenia syndrome virus
[12] = A549, 48 h, read-out: EC50 (μM) mean ± sd SFTSV A549
[13] = Huh-7, 48 h, read-out: EC50 (μM) mean ± sd SFTSV Huh-7
[14] = Vero, 48 h, read-out: EC50 (μM) mean ± sd SFTSV Vero
[15] = read-out: EC50 range for SFTSV over all cell lines evaluated
[16] = A549, 48 h, read-out: EC50 (μM) mean ± sd LCMV A549
[17] = BHK-21, 48 h, read-out: EC50 (μM) mean ± sd LCMV BHK-21
[18] = Vero, 48 h, read-out: EC50 (μM) mean ± sd LCMV Vero
[19] = read-out: EC50 range for LCMV over all cell lines evaluated

O=c1ccn([C@@H]2O[C@](F)(CO)[C@@H](O)[C@H]2O)c(=O)[nH]1 [4′-FlU, 4′-Fluorouridine]
SI values SFTSV A549 [1]: > 210.67 | SI values SFTSV Huh-7 [1]: > 214.23 | SI values SFTSV Vero [1]: > 245.98 | EC50 [1, 12]: 2.37 ± 0.16 µM | EC50 [1, 13]: 2.33 ± 0.51 µM | EC50 [1, 14]: 2.03 ± 0.82 µM | EC50 [1, 15]: 2.03 to 2.37 µM | AUC0-t [2]: 10700 ng·h/mL | Cmax [2]: 1500 ng/mL | half-life [2]: 409 ± 27.6 min | AUC0-t [3]: 7280 ng·h/mL | Cmax [3]: 1370 ng/mL | half-life [3]: 203 ± 84.6 min | CC50 [4]: > 500 µM | SI values LCMV A549 [5]: > 4826.57 | SI values LCMV BHK-21 [5]: > 3389.68 | SI values LCMV Vero [5]: > 12697.20 | EC50 [5, 16]: 0.1 ± 0.01 µM | EC50 [5, 17]: 0.15 ± 0.05 µM | EC50 [5, 18]: 0.04 ± 0.01 µM | EC50 [5, 19]: 0.04 to 0.15 µM

NC(=O)c1nc(F)c[nH]c1=O [T-705, favipiravir]
SI values SFTSV A549 [1]: > 1.79 | SI values SFTSV Huh-7 [1]: > 160.32 | SI values SFTSV Vero [1]: > 24.23 | EC50 [1, 12]: 280 µM | EC50 [1, 13]: 3.12 µM | EC50 [1, 14]: 20.6 µM | leukopenia, lymphocytopenia and reduction in platelet count (hematological parameters) [6]: relieved | lung pathology scores [6]: significantly lower pathology scores | spleen histopathology scores [6]: substantially reduced | splenomegaly (spleen-to-body weight ratio) [6]: significantly ameliorated | virus load in the liver, spleen, lung, and kidney (qRT-PCR and immunoplaque assays) [6]: significant reductions | infectious viral titers in the spleen (immunoplaque assays) ([6]; 300 mg/kg): marked decreases | plasma levels of IFN-γ, TNF-α, IL-1β and IL-6 ([6]; 300 mg/kg): significantly reduced | viral RNA copies in the spleen (qRT-PCR) ([6]; 300 mg/kg): no statistically significant reduction | body weight ([6]; po, 300 mg/kg): slight initial weight loss followed by weight recovery at 5 days post-infection | survival ([6]; po, 300 mg/kg): survived | body weight [7]: parallel body weight with that of the vehicle-treated group | spleen damage (spleen size, pathology score, H&E staining) [7]: marked pathological lesions | viral RNA copies in the liver, spleen, lung, and kidney (qRT-PCR) [7]: no reduction in the number of viral RNA copies was observed except in the lungs | viral titer in the liver, spleen, lung, and kidney (immunoplaque assay) [7]: reduced the viral titer in the tissues | plasma IFN-γ and granulocyte colony-stimulating factor ([7]; 300 mg/kg): no significant effect | survival ([7]; po, 300 mg/kg): no survivors remaining by the end of the study | CC50 [4]: > 500 µM | SI values LCMV A549 [5]: > 7.36 | SI values LCMV Vero [5]: > 5.64 | EC50 [5, 16]: 68 µM | EC50 [5, 18]: 88.6 µM

CC(=O)OC[C@@]1(F)O[C@@H](n2ccc(=O)n(COC(=O)c3cccnc3)c2=O)[C@H](OC(C)=O)[C@@H]1OC(C)=O [VV251]
SI values SFTSV A549 [1]: > 96.94 | SI values SFTSV Vero [1]: > 168.75 | EC50 [1, 12]: 5.16 µM | EC50 [1, 13]: 0.65 µM | EC50 [1, 14]: 2.96 µM | EC50 [1, 15]: 0.65 to 5.16 µM | leukopenia, lymphocytopenia and reduction in platelet count (hematological parameters) [6]: relieved | lung pathology scores [6]: significantly lower pathology scores | plasma levels of IFN-γ, TNF-α, IL-1β and IL-6 [6]: significantly reduced | spleen histopathology scores [6]: substantially reduced | splenomegaly (spleen-to-body weight ratio) [6]: significantly ameliorated | virus load in the liver, spleen, lung, and kidney (qRT-PCR and immunoplaque assays) [6]: significant reductions | body weight ([6]; po, 1 mg/kg): significant reduction in body weight | survival ([6]; po, 1 mg/kg): only one mouse surviving until the end of the study | mice that died ([6]; po, 5 mg/kg): one | body weight ([6]; po, 10 mg/kg): remained stable | AUC0-t [8]: 14,922 ng·h/mL | Cmax [8]: 2,358 ng/mL | T1/2 [8]: 5.45 ± 0.82 h | antiviral effect on addition of exogenous natural nucleosides [9]: competitively reversed by supplementation with exogenous uridine and cytidine | AUC0-t [10]: 9,714 ng·h/mL | Cmax [10]: 1,598 ng/mL | T1/2 [10]: 6.34 ± 0.75 h | body weight [7]: remained stable | hematological parameters (white blood cell, platelet, lymphocyte count) [7]: ameliorated viremia induced by LCMV infection | number of viral RNA copies relative to the vehicle group [7]: more than one order of magnitude lower | plasma IFN-γ and granulocyte colony-stimulating factor [7]: statistically significant reduction | spleen damage (spleen size, pathology score, H&E staining) [7]: ameliorated spleen damage efficiently | viral RNA copies in the liver, spleen, lung, and kidney (qRT-PCR) [7]: significantly decreased | viral titer in the liver, spleen, lung, and kidney (immunoplaque assay) [7]: significantly decreased | CC50 [4]: > 500 µM | antiviral effect on addition of exogenous natural nucleosides [11]: competitively reversed by supplementation with exogenous uridine and cytidine | SI values LCMV A549 [5]: > 6559.96 | SI values LCMV BHK-21 [5]: > 3177.56 | SI values LCMV Vero [5]: > 3628.85 | fold lower EC50 than T-705 against LCMV [5]: 849.6 fold and 632.9 fold | EC50 [5, 16]: 0.08 µM | EC50 [5, 17]: 0.16 ± 0.05 µM | EC50 [5, 18]: 0.14 µM | EC50 [5, 19]: 0.08 to 0.16 µM

Reference: publication PMC12548419 (Journal of Virology, 2025)
